Values of other authors as cited in US20120135069A1, “NANONIZED TESTOSTERON FORMULATIONS FOR IMPROVED BIOAVAILABILITY” (PHARMASOL GMBH, priority 2009, published 2012).

Experiments:
[1] = taken orally
[2] = in vivo

SMILES	fraction of the drug immediately metabolised by liver enzymes (first pass effect) [1]	liver toxicity [2]
C[C@]12CC[C@H]3[C@@H](CCC4=CC(=O)CC[C@@]43C)[C@@H]1CC[C@@H]2O [testosterone]	about 99%	–
C[C@]12CCC(=O)C=C1CC[C@@H]1[C@@H]2CC[C@@]2(C)[C@H]1CC[C@]2(C)O [methyltestosterone]	–	very liver toxic
